Measured values reported in patent US7803792B2, “Quaternary ammonium compounds” (Asahi Kasei Pharma Corporation, priority 2002, dated 2010).
pIC50: −log10 of the molar value.

Molecular target: T1, human IBAT (Homo sapiens, UniProt Q12908)
T1 construct: expressed in transfected cells; host or cells: Cos 7
T1 sequence (Q12908 1-348): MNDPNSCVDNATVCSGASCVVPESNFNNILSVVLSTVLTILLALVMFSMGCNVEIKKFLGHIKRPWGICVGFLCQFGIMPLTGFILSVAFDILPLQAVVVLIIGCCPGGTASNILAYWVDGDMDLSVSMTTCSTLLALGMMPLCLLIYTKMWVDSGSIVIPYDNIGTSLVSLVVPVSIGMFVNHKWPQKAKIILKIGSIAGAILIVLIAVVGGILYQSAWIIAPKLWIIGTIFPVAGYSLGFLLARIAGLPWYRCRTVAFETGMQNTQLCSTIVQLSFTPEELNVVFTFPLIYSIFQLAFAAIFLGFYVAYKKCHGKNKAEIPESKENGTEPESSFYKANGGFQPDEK
Assay: In vitro assay of temporarily expressed human IBAT transporter using Cos 7 cells (Test Example 8)
Type: cell-based
Settings: Cos 7 cells temporarily expressing human IBAT; [3H] taurocholate 8 μM, 37° C., 60 minutes
Protocol: In Vitro Assay of Compounds Which Inhibit Temporarily Expressed Human IBAT Transporter or Rat IBAT Transporter Using Cos 7 Cells
In this test example, the in vitro assay of the compounds which inhibit temporarily expressed human IBAT transporter or rat IBAT transporter using Cos cells was carried out according to the method described in Am. J. Physiol., 274, G157-169.
That is, […] Cos 7 were inoculated on a 24-well cell plate. One day later, 0.3 μg per well of cDNA of a human IBAT or a rat IBAT was transfected by using FuGENE6 (manufactured by ROCHE PHARMACEUTICAL CO., LTD.). For the assay, the cells cultured for one day after the transfection were used and the following procedure was followed. The cells were washed once with an assay buffer, Hank's buffer solution containing 25 mM glucose and with 10 mM HEPES (pH 7.4), and then the assay buffer was replaced by an assay buffer to which the test compound was added. After adding [^3H] taurocholate to a final concentration of 8 μM, the cells were incubated at 37° C. for 60 minutes. [^3H] taurocholate was allowed to be incorporated in Cos 7 cells through human IBAT or rat IBAT. The reaction was stopped by washing twice with a buffer prepared by adding 1 mM taurocholate to the assay buffer and lyzing the cells with 0.2M NaOH. Measurement of radioactivity was carried out by introducing the cell lyzate in 4 ml of liquid scintillation cocktail, stirring the mixture well, and then measuring the radioactivity by a scintillation counter.

Row | Compound | pIC50
1 | CCCCC1(CCCC)CS(=O)(=O)c2ccc(N(C)C)cc2C(c2cccc(NC(=S)NCCCCC[N+]34CCC(CC3)CC4)c2)N1 (stereo not drawn) [Example 1433] | 6.99
2 | CCCCC1(CCCC)CS(=O)(=O)c2ccc(N(C)C)cc2C(c2cccc(NC(=S)NCCCCCC[N+](C)(C)Cc3ccccc3)c2)N1 (stereo not drawn) [Example 1555] | 6.82
3 | CCCCC1(CCCC)CS(=O)(=O)c2ccc(N(C)C)cc2C(c2cccc(NC(=S)NCCCCCC[N+]34CCC(CC3)CC4)c2)N1 (stereo not drawn) [Example 1810] | 6.78
4 | CCCCCCCC[N+](C)(C)Cc1ccc(NC(=S)Nc2cccc(C3NC(CCCC)(CCCC)CS(=O)(=O)c4ccc(N(C)C)cc43)c2)cc1 (stereo not drawn) [Example 3412] | 7.12
5 | CCCCCCCCC[N+](C)(C)Cc1ccc(NC(=S)Nc2cccc(C3NC(CCCC)(CCCC)CS(=O)(=O)c4ccc(N(C)C)cc43)c2)cc1 (stereo not drawn) [Example 3413] | 7.14
6 | CCCCCCCCCC[N+](C)(C)Cc1ccc(NC(=S)Nc2cccc(C3NC(CCCC)(CCCC)CS(=O)(=O)c4ccc(N(C)C)cc43)c2)cc1 (stereo not drawn) [Example 3414] | 7.06
7 | CCC#CC[N+](C)(C)Cc1ccc(NC(=S)Nc2cccc(C3NC(CCCC)(CCCC)CS(=O)(=O)c4ccc(N(C)C)cc43)c2)cc1 (stereo not drawn) [Example 3434] | 7.15
8 | CCCCC1(CCCC)CS(=O)(=O)c2ccc(N(C)C)cc2C(c2cccc(NC(=S)Nc3ccc(C[N+](C)(C)C(C)c4ccccc4)cc3)c2)N1 (stereo not drawn) [Example 3441] | 7.07
9 | CCCCC1(CCCC)CS(=O)(=O)c2ccc(N(C)C)cc2C(c2cccc(NC(=S)Nc3ccc(C[N+]4(CC)CCCC4)cc3)c2)N1 (stereo not drawn) [Example 3568] | 7.03
10 | CCCCC1(CCCC)CS(=O)(=O)c2ccc(N(C)C)cc2C(c2cccc(NC(=S)Nc3ccc(C[N+]45CCC(CC4)C(=O)C5)cc3)c2)N1 (stereo not drawn) [Example 3698] | 7.14
11 | CCCCC(CCCC)c1cc[n+](Cc2ccc(NC(=S)Nc3cccc(C4NC(CCCC)(CCCC)CS(=O)(=O)c5ccc(N(C)C)cc54)c3)cc2)cc1 (stereo not drawn) [Example 3716] | 7.05
12 | CCCCC1(CCCC)CS(=O)(=O)c2ccc(N(C)C)cc2C(c2cccc(NC(=S)Nc3ccc(C[n+]4cccc(-c5cccs5)c4)cc3)c2)N1 (stereo not drawn) [Example 3726] | 7.14
13 | CCCCC1(CCCC)CS(=O)(=O)c2ccc(N(C)C)cc2C(c2cccc(NC(=S)Nc3ccc(C[n+]4cc(C)cc(C)c4)cc3)c2)N1 (stereo not drawn) [Example 3729] | 7.06
14 | CCCCC1(CCCC)CS(=O)(=O)c2ccc(N(C)C)cc2C(c2cccc(NC(=S)Nc3ccc(C[n+]4cc(C)cc(-c5ccccc5)c4)cc3)c2)N1 (stereo not drawn) [Example 3730] | 7.08
15 | CCCCC1(CCCC)CS(=O)(=O)c2ccc(N(C)C)cc2C(c2cccc(NC(=S)Nc3ccc(C[n+]4cccc(C(=O)c5ccccc5)c4)cc3)c2)N1 (stereo not drawn) [Example 3748] | 7.09
16 | CCCCCCOC(=O)c1ccc[n+](Cc2ccc(NC(=S)Nc3cccc(C4NC(CCCC)(CCCC)CS(=O)(=O)c5ccc(N(C)C)cc54)c3)cc2)c1 (stereo not drawn) [Example 3750] | 7.12
17 | CCCCC1(CCCC)CS(=O)(=O)c2ccc(N(C)C)cc2C(c2cccc(NC(=S)Nc3ccc(C[n+]4ccc(C(N)=O)cc4)cc3)c2)N1 (stereo not drawn) [Example 3754] | 7.04
18 | CCCCC1(CCCC)CS(=O)(=O)c2ccc(N(C)C)cc2C(c2cccc(NC(=S)Nc3ccc(C[n+]4ccc(CCc5ccncc5)cc4)cc3)c2)N1 (stereo not drawn) [Example 3764] | 7.10
19 | CCCCC1(CCCC)CS(=O)(=O)c2ccc(N(C)C)cc2C(c2cccc(NC(=S)Nc3ccc(C[n+]4cccc5ccccc54)cc3)c2)N1 (stereo not drawn) [Example 3768] | 7.14
20 | CCCCC1(CCCC)CS(=O)(=O)c2ccc(N(C)C)cc2C(c2cccc(NC(=S)Nc3ccc(C[n+]4cccc5cc(C(C)C)ccc54)cc3)c2)N1 (stereo not drawn) [Example 3772] | 7.05
21 | CCCCC1(CCCC)CS(=O)(=O)c2ccc(N(C)C)cc2C(c2cccc(NC(=S)Nc3cccc(C[N+](C)(C)CCCC)c3)c2)N1 (stereo not drawn) [Example 4226] | 7.00
22 | CCCCC1(CCCC)CS(=O)(=O)c2ccc(N(C)C)cc2C(c2cccc(NC(=S)Nc3cccc(C[N+](CC)(CC)CC)c3)c2)N1 (stereo not drawn) [Example 4232] | 7.00

Results, then the compound that gave them:

Row | pIC50 | Compound
23 | 7.17 | CCCCCC[N+](C)(C)Cc1ccc(NC(=S)Nc2cccc(C3NC(CCCC)(CCCC)CS(=O)(=O)c4ccc(N(C)C)cc43)c2)cc1 (stereo not drawn) [Example 3410]
24 | 7.24 | CCCCC1(CCCC)CS(=O)(=O)c2ccc(N(C)C)cc2C(c2cccc(NC(=S)Nc3ccc(C[N+](C)(CCC)CCC)cc3)c2)N1 (stereo not drawn) [Example 3426]
25 | 7.26 | C=CC[N+](C)(C)Cc1ccc(NC(=S)Nc2cccc(C3NC(CCCC)(CCCC)CS(=O)(=O)c4ccc(N(C)C)cc43)c2)cc1 (stereo not drawn) [Example 3429]
26 | 7.26 | C#CC[N+](C)(C)Cc1ccc(NC(=S)Nc2cccc(C3NC(CCCC)(CCCC)CS(=O)(=O)c4ccc(N(C)C)cc43)c2)cc1 (stereo not drawn) [Example 3433]
27 | 7.26 | CCCCC1(CCCC)CS(=O)(=O)c2ccc(N(C)C)cc2C(c2cccc(NC(=S)Nc3ccc(C[N+](C)(C)Cc4cccs4)cc3)c2)N1 (stereo not drawn) [Example 3449]
28 | 7.17 | CCCCC1(CCCC)CS(=O)(=O)c2ccc(N(C)C)cc2C(c2cccc(NC(=S)Nc3ccc(C[N+](C)(C)CC(C)O)cc3)c2)N1 (stereo not drawn) [Example 3454]
29 | 7.15 | CCCCC1(CCCC)CS(=O)(=O)c2ccc(N(C)C)cc2C(c2cccc(NC(=S)Nc3ccc(C[N+](C)(C)CCOC(=O)c4ccccc4)cc3)c2)N1 (stereo not drawn) [Example 3558]
30 | 7.15 | CCCCC1(CCCC)CS(=O)(=O)c2ccc(N(C)C)cc2C(c2cccc(NC(=S)Nc3ccc(C[N+]4(C)CCCCC4)cc3)c2)N1 (stereo not drawn) [Example 3587]
31 | 7.15 | CCCCC1(CCCC)CS(=O)(=O)c2ccc(N(C)C)cc2C(c2cccc(NC(=S)Nc3ccc(C[N+]4(Cc5ccccc5)CCCCC4)cc3)c2)N1 (stereo not drawn) [Example 3593]
32 | 7.27 | CCCCC1(CCCC)CS(=O)(=O)c2ccc(N(C)C)cc2C(c2cccc(NC(=S)Nc3ccc(C[N+]4(C)CCC(O)CC4)cc3)c2)N1 (stereo not drawn) [Example 3599]
33 | 7.35 | CCCCC1(CCCC)CS(=O)(=O)c2ccc(N(C)C)cc2C(c2cccc(NC(=S)Nc3ccc(C[N+]4(Cc5ccccc5)CCCC(O)C4)cc3)c2)N1 (stereo not drawn) [Example 3604]
34 | 7.16 | CCCCC1(CCCC)CS(=O)(=O)c2ccc(N(C)C)cc2C(c2cccc(NC(=S)Nc3ccc(C[N+]45CCC(CC4)C(O)C5)cc3)c2)N1 (stereo not drawn) [Example 3697]
35 | 7.15 | CCCCC1(CCCC)CS(=O)(=O)c2ccc(N(C)C)cc2C(c2cccc(NC(=S)Nc3ccc(C[n+]4ccccc4)cc3)c2)N1 (stereo not drawn) [Example 3708]
36 | 7.20 | CCCCC1(CCCC)CS(=O)(=O)c2ccc(N(C)C)cc2C(c2cccc(NC(=S)Nc3ccc(C[n+]4ccc(CCC)cc4)cc3)c2)N1 (stereo not drawn) [Example 3711]
37 | 7.52 | CCCCC1(CCCC)CS(=O)(=O)c2ccc(N(C)C)cc2C(c2cccc(NC(=S)Nc3ccc(C[n+]4ccc(-c5ccccc5)cc4)cc3)c2)N1 (stereo not drawn) [Example 3717]
38 | 7.41 | CCCCC1(CCCC)CS(=O)(=O)c2ccc(N(C)C)cc2C(c2cccc(NC(=S)Nc3ccc(C[n+]4cccc(CC)c4)cc3)c2)N1 (stereo not drawn) [Example 3722]
39 | 7.16 | CCCCC1(CCCC)CS(=O)(=O)c2ccc(N(C)C)cc2C(c2cccc(NC(=S)Nc3ccc(C[n+]4cccc(-c5ccccc5)c4)cc3)c2)N1 (stereo not drawn) [Example 3724]
40 | 7.28 | CCCCC1(CCCC)CS(=O)(=O)c2ccc(N(C)C)cc2C(c2cccc(NC(=S)Nc3ccc(C[n+]4cccc(Cc5ccccc5)c4)cc3)c2)N1 (stereo not drawn) [Example 3725]
41 | 7.18 | CCCCC1(CCCC)CS(=O)(=O)c2ccc(N(C)C)cc2C(c2cccc(NC(=S)Nc3ccc(C[n+]4ccc(C)c(C)c4)cc3)c2)N1 (stereo not drawn) [Example 3727]
42 | 7.24 | CCCCC1(CCCC)CS(=O)(=O)c2ccc(N(C)C)cc2C(c2cccc(NC(=S)Nc3ccc(C[n+]4ccc(CCCO)cc4)cc3)c2)N1 (stereo not drawn) [Example 3733]
43 | 7.30 | CCCCC1(CCCC)CS(=O)(=O)c2ccc(N(C)C)cc2C(c2cccc(NC(=S)Nc3ccc(C[n+]4ccc(C(C)=O)cc4)cc3)c2)N1 (stereo not drawn) [Example 3736]
44 | 7.24 | CCCCC1(CCCC)CS(=O)(=O)c2ccc(N(C)C)cc2C(c2cccc(NC(=S)Nc3ccc(C[n+]4cccc5cc(C)ccc54)cc3)c2)N1 (stereo not drawn) [Example 3770]
45 | 7.55 | CCCCC1(CCCC)CS(=O)(=O)c2ccc(N(C)C)cc2C(c2cccc(NC(=S)CCCCC[N+]34CCC(CC3)C(O)C4)c2)N1 (stereo not drawn) [Example 3854]
46 | 7.37 | CCCCC1(CCCC)CS(=O)(=O)c2ccc(N(C)C)cc2C(c2cccc(NC(=S)Nc3ccc(C[n+]4cccc5c4CCCC5)cc3)c2)N1 (stereo not drawn) [Example 4221]
47 | 7.60 | CCCCC1(CCCC)CS(=O)(=O)c2ccc(N(C)C)cc2C(c2cccc(NC(=S)Nc3ccc(C[n+]4ccc5c(c4)CCCC5)cc3)c2)N1 (stereo not drawn) [Example 4223]
48 | 7.34 | CCCCC1(CCCC)CS(=O)(=O)c2ccc(N(C)C)cc2C(c2cccc(NC(=S)Nc3cccc(C[N+](CC)(CC)CCCC)c3)c2)N1 (stereo not drawn) [Example 4233]
